Columns and labels:
[1] = molecular target: T1, FGFR-1 (Homo sapiens, UniProt P11362); assay: Kinase inhibition assay (DELFIA), FGFr; format: biochemical; details: 40 μM ATP, kinase domain 20 nM
T1 construct: The kinase domains from FGFR-1, VEGFR-2, Lck, and PDGF were purified from baculoviral vectors expression systems; made in house
Method: (§1) The inhibition activity of the compounds in Examples 8, 9, 10, 11, and 12 and Reference Compounds A and B were evaluated using the Dissociated Enhanced Lanthanide Fluoroimmuno Assay (DELFIA) (Frank Loganzo and Carolyn Hardy. A sensitive, time-resolved fluorometric assay for the detection of inhibitors of phosphotyrosine kinases. American Biotechnology Laboratory, December 1998). DELFIA plates (EG&G Wallac, Gaithersburg, Md.) were coated overnight with Poly Glu Tyr (4:1) (Sigma, St. Louis, Mo.) at room temperature, washed (DELFIA wash reagent, EG&G Wallac), and spotted with 1 μL inhibitor dilution or DMSO carrier control per well. In some cases, kinase was autophosphorylated prior to analysis by incubating 45 minutes at 4° C. in the presence of 4 mM ATP and 25 mM MgCl2. A typical 100 μL kinase assay reaction contained 20 mM Tris (pH 7.5), 20 mM MgCl2, 50 mM NaCl, 5 mM DTT, and protease inhibitors (Mini EDTA-free protease inhibitor cocktail tablets, Boehringer Mannheim, Indianapolis, Ind.), 40 μM ATP, and an appropriate concentration of inhibitor. The reaction was allowed to continue for 30 minutes at room temperature. Plates were washed, blocked 30 minutes at room temperature (0.5% bovine serum albumin in DELFIA Assay Buffer, EG&G Wallac), and washed. One hundred microliter europium-conjugated antiphosphotyrosine antibody in DELFIA assay buffer was added to each well. Plates were incubated for 1 hour and decanted. One hundred microliter DELFIA enhancement solution (EG&G Wallac) was added and time-resolved fluorescence of the reactions determined using a VICTOR2 1420 multilable counter (EG&G Wallac). Compounds were tested from 10 through 0.0001 μM. c-Src was (Upstate Biotechnology, Lake Placid, N.Y.) was used at 3 units per reaction. The kinase domains from FGFR-1, VEGFR-2, Lck, and PDGF were purified from baculoviral vectors expression systems and were used in the assays at 20 nM.

[2] = molecular target: T2, PDGFR (Mus musculus, UniProt P05622); assay: Kinase inhibition assay (DELFIA), PDGF; format: biochemical; details: 40 μM ATP, kinase domain 20 nM
T2 construct: The kinase domains from FGFR-1, VEGFR-2, Lck, and PDGF were purified from baculoviral vectors expression systems and were used in the assays at 20 nM
T2 sequence (P05622 553-1098): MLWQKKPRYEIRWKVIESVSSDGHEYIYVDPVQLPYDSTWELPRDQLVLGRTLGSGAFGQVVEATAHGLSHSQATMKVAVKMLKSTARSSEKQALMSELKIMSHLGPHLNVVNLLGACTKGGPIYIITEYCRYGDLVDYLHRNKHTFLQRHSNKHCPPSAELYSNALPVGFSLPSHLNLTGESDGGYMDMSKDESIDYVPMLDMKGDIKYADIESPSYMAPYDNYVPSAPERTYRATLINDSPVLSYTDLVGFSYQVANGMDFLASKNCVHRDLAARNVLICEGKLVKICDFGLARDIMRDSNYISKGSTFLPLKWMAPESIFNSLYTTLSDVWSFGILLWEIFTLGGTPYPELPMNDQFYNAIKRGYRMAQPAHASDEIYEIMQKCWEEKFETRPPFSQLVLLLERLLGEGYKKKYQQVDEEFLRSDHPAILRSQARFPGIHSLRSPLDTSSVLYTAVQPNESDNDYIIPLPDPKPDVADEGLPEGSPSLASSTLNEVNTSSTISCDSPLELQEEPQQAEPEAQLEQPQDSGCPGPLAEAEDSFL
Method: as §1, with “Plates were washed, blocked 30 minutes at room temperature (0.5% bovine serum albumin in DELFIA Assay Buffer, EG&G Wallac), and washed. One hundred microliter europium-conjugated antiphosphotyrosine antibody in DELFIA assay buffer was added to each well. Plates were incubated for 1 hour and decanted.” left out, “Compounds were tested from 10 through 0.0001 μM. c-Src was (Upstate Biotechnology, Lake Placid, N.Y.) was used at 3 units per reaction. The kinase domains from FGFR-1, VEGFR-2, Lck, and PDGF were purified from baculoviral vectors expression systems and were used in the assays at 20 nM.” left out

[3] = molecular target: T3, Lck (Homo sapiens, UniProt P06239); assay: Kinase inhibition assay (DELFIA), Lck; format: biochemical; details: 40 μM ATP, kinase domain 20 nM
T3 construct: The kinase domains from FGFR-1, VEGFR-2, Lck, and PDGF were purified from baculoviral vectors expression systems; made in house
T3 sequence (P06239 245-498 limits assumed, species assumed): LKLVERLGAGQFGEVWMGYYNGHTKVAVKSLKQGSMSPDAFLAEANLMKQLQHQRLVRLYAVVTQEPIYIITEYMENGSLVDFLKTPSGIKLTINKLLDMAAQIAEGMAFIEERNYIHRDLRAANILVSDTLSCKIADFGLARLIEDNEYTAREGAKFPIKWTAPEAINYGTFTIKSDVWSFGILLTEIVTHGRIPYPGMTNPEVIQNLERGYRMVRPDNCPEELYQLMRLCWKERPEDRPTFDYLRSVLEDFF
Method: as §1

[4] = Metabolic stability, human liver S9 fraction; format: in vitro ADME; details: human liver S9, 5 μM, 37° C., 1.0 mM NADPH
Method: Compounds were individually incubated (5 μM in DMSO) with human and mice liver S9 fractions in 50 mM KHPO4 buffer at 37° C. in the presence of 1.0 mM NADPH and additional cofactors. At 0, 10, 20, and 40 minutes, 100 μL aliquots were removed and added to 300 μL of acetonitrile. Standard curves were prepared in a similar manner with each compound. Samples were analyzed for parent concentration by LC-MS/MS. The in vitro metabolic half-life was determined from the concentration-time plots using WinNonlin. These in vitro data represent the rate of oxidative, hydrolytic, and conjugative metabolism.

[5] = tested on: C6 rat glioma cells; assay: C6 tumor cell proliferation (Sulphorhodamine B); format: cell-based; details: 4 days with compound
Method: Human umbilical vein endothelial cells (HUVECs) (Clonetics, Palo Alto, Calif.) were seeded at 2000 cells per well in growth medium containing 2% serum (EGM, Clonetics) and allowed to attach overnight (37° C., 5% CO2, 100% humidity). C6 rat glioma cells (ATCC) were seeded at 600 cells per well and incubated in F10 medium (GIBCO, Gaithersburg, Md.) supplemented with 15% horse serum, 2.5% fetal bovine serum, and 1 mM glutamine. A90 human ovarian cells (Dr. Kent Crickard, SUNY/AB Medical School) were seeded at 600 cells per well in RPMI1640 (GIBCO) plus 10% fetal bovine serum. Plates were incubated overnight (37° C., 5% CO2, 100% humidity) to allow the cells to attach. Test compound dilutions were added to the appropriate wells, and the incubation was continued for 4 additional days. Monolayers were fixed in 10% trichloroacetic acid (30 minutes at 4° C.), washed with distilled water, and stained with Sulphorhodamine B (0.075% in 1% acetic acid) (Sigma). Plates were washed in 1% acetic acid, and the bound dye was solubilized in 100 μL unbuffered Tris base. Absorbance was measured at 540 nm using a reference filter wavelength of 630 nm. Inhibitor potency (IC50) versus cellular proliferation was determined, and endothelial cell selectivity was assessed by comparing the inhibition of HUVEC proliferation to A90 and C6 tumor cell proliferation (Table 3).

[6] = tested on: Mammary Adenocarcinoma M16/C; assay: Antitumor activity in vivo, M16/C mammary tumor model; details: for CRs, complete regression / T-C (Days), tumor growth delay to 750 mg / T/C (%), median treated tumor mass/median control tumor mass / NSD, nonspecific deaths/total in treatment group: D7-15; for T/C (%), median treated tumor mass/median control tumor mass: 3 days after the end of therapy
Method: The anticancer efficacy of the compound of Example 8 was evaluated using a murine mammary […] tumor model, M16/C. This highly vascularized tumor is very aggressive with a doubling time of 1.5 days. Tumor fragments were implanted by trocar fragment in the right axilla of C3H mice on Day 0. The efficacy of treatment was assessed both in an advanced stage model (test compound treatment for nine consecutive days after tumors had reached 100 mg). The compound in Example 8 was dosed once a day over the treatment period by oral gavage in 0.05 M sodium lactate buffer, pH 4. Animals were allowed to continue off therapy until the tumors reached the evaluable size (750 mg). Animal weights were determined throughout the study to provide an estimate of test compound toxicity. A mean weight loss >10% (3–4 g) for any treatment group is an indication of host toxicity. Anticancer activity was evaluated using two methods. The first is %T/C where T=median mass of treated tumors 3 days after the end of therapy, and C=median mass of the control group at that same time point. The highest degree of antitumor activity using this assessment occurs when T=0, and %T/C=0%. […] The second method uses tumor growth delay (T−C), where T=the days for the median treated tumor to reach an evaluable size (750 mg), and C=days for control tumors to reach that same size.

[7] = molecular target: T4, c-Src (Homo sapiens, UniProt P12931); assay: Kinase inhibition assay (DELFIA), c-Src; format: biochemical; details: 40 μM ATP, c-Src 3 units per reaction
T4 construct: purchased Upstate Biotechnology, Lake Placid, N.Y
Method: as §1

T1 sequence (P11362 478-767 limits assumed, species assumed): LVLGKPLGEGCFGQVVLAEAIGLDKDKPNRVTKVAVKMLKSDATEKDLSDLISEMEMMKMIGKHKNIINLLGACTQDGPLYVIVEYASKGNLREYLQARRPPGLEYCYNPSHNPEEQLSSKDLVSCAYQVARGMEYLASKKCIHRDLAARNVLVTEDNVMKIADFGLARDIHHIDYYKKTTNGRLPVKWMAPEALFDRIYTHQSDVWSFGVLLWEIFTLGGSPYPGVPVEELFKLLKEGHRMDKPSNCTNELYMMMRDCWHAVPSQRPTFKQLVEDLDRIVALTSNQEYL

Substance: 6-(3,5-Dimethoxy-phenyl)-8-ethyl-2-(pyridin-4-ylamino)-8H-pyrido[2,3-d]pyrimidin-7-one [Example 8]
- IC50 [1]: 0.009 µM
- IC50 [2]: 2.54 µM
- Ki [3]: 1.79 µM
- HS9 in vitro metabolic half-life [4]: >3.33 h
- IC50 [5]: > 25 µM
- CRs, complete regression ([6]; 5 mg/kg, oral): 0/6
- T-C (Days), tumor growth delay to 750 mg ([6]; 5 mg/kg, oral): 4.3 days
- T/C (%), median treated tumor mass/median control tumor mass ([6]; 5 mg/kg, oral): 39%
- NSD, nonspecific deaths/total in treatment group ([6]; 10 mg/kg, oral): 0/6
- T-C (Days), tumor growth delay to 750 mg ([6]; 10 mg/kg, oral): 7.9 days
- T/C (%), median treated tumor mass/median control tumor mass ([6]; 10 mg/kg, oral): 15%
- CRs, complete regression ([6]; 20 mg/kg, oral): 4/6
- NSD, nonspecific deaths/total in treatment group ([6]; 20 mg/kg, oral): 0/6
- T-C (Days), tumor growth delay to 750 mg ([6]; 20 mg/kg, oral): 10.7 days
- T/C (%), median treated tumor mass/median control tumor mass ([6]; 20 mg/kg, oral): 0%
- CRs, complete regression ([6]; 40 mg/kg, oral): 6/6
- NSD, nonspecific deaths/total in treatment group ([6]; 40 mg/kg, oral): 0/6
- T-C (Days), tumor growth delay to 750 mg ([6]; 40 mg/kg, oral): 12.4 days
- T/C (%), median treated tumor mass/median control tumor mass ([6]; 40 mg/kg, oral): 0%
- regression of tumors below the level of palpation ([6]; 40 and 20 mg/kg dose levels): complete regressions
- tumor growth delay (T−C) relative to duration of therapy ([6]; 40 and 20 mg/kg dose levels): greater than the duration of therapy
- anticancer activity (%T/C) ([6]; all four doses tested): meaningful anticancer activity
- tolerability ([6]; all four doses tested, oral, nine consecutive days): well-tolerated
- IC50 [7]: 36.5 µM
